The text below walks through data of ChEMBL document CHEMBL4052645, “Discovery of potent and efficacious pyrrolopyridazines as dual JAK1/3 inhibitors” (Bioorg Med Chem Lett, 2017).

A short description of series [1]: Volume of distribution at steady state in Sprague-Dawley rat at 2 mg/kg, iv. The series is classed as ADME, organism-based. The conditions noted are these: in vivo, read-out: Vdss.
A short description of series [2]: Oral bioavailability in BALB/c mouse at 10 mg/kg. The series is classed as ADME, organism-based. The conditions noted are these: in vivo.
Another series has as its system Rattus norvegicus. The experiment in a line: Cardiotoxicity in rat assessed as decrease in blood pressure at 30 mg/kg, po. The series is classed as toxicity, organism-based. Also on record: scale not given: the % may be the effect or the level left. The following applies: in vivo.
Series [3] in a line: Half life in BALB/c mouse at 10 mg/kg, po. The format is ADME, organism-based. The conditions noted are these: in vivo.
Series [4] addresses Cyclin-dependent kinase-like 2 (Homo sapiens) (UniProt Q92772). The experiment in a line: Inhibition of wild-type human partial length CDKL2 (M1 to D327 residues) expressed in bacterial expression system assessed as residual activity at 50 nM by Kinomescan method relative to control.
Series [5] deals with Nuclear receptor subfamily 1 group I member 2 (Homo sapiens, UniProt O75469). The series is described as follows: Activation of PXR (unknown origin). The format is ADME.
Chain of Nuclear receptor subfamily 1 group I member 2 (O75469 whole entry): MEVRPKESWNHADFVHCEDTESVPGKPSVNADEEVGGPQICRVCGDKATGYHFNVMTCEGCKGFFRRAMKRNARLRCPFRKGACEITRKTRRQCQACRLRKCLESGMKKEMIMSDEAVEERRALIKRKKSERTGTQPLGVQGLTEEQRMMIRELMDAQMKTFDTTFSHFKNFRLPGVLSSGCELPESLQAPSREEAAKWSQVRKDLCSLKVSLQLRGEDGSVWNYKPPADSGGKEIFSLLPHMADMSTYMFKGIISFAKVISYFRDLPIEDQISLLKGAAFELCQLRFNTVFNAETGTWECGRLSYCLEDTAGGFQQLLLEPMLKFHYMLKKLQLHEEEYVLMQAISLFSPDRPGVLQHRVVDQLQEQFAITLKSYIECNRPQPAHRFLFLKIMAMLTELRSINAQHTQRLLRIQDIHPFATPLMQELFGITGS

Chain of Cyclin-dependent kinase-like 2 (Homo sapiens) (Q92772 whole entry, the tested form may be a part): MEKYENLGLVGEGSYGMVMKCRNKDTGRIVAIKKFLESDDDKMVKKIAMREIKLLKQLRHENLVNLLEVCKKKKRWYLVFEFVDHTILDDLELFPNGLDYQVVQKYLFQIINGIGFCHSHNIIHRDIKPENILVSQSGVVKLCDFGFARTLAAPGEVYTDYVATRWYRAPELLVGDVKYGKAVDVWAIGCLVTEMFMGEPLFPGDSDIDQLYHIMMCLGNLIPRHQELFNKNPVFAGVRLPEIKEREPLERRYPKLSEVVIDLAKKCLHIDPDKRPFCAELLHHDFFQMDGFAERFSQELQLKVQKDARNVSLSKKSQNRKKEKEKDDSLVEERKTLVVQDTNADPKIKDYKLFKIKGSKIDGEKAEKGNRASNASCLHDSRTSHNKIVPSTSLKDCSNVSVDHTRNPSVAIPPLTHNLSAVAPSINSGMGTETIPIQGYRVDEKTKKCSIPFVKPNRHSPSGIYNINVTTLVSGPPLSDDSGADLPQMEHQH

Take `COc1ccc(-c2cc3c(N[C@@H]4CC[C@](C)(N)C4(C)C)c(C(N)=O)cnn3c2)cn1`: the Vd in series [1] came to 11.5 L/kg. In addition, in series [2], the bioavailability came out at 73%. The Activity came to 14% with Rattus norvegicus and 93% in series [4]. The half-life in series [3] was 612 min. Moreover, the concentration giving a half-maximal response (EC50) in series [5] was > 17 µM.

As a reminder, the bioavailability is the share of a dose that reaches the circulation, judged against a reference dose that is usually intravenous. What is called half-life is the time needed for the level to fall by half in the phase considered. In general, EC50 refers to the concentration giving half of the maximal effect.
